Results taken from patent US5393772A, “Use of, and method of treatment using, hydroxycarbazole compounds for inhibition of smooth muscle migration and proliferation” (Boehringer Mannheim Pharmaceuticals Corporation, priority 1993, dated 1995).

system: rat aortic vascular smooth muscle cells; assay: PDGF-induced migration of rat aortic vascular smooth muscle cells (modified Boyden chamber, Transwell); type: cell-based; details: PDGF as chemoattractant, without inhibitor
Experimental: The procedure for assessing vascular smooth muscle cell migration was described previously in Hidaka, Y., Eda, T., Yonemoto, M. & Kamei, T. (1992) Atheroscler. 95, 87-94. Briefly, rat aortic vascular smooth muscle cells (passage 3) were suspended (1×10^6 cells/ml) in serum free DMEM supplemented with 0.2% (w/v) bovine serum albumin (Sigma). Migration assays were performed in modified Boyden chambers using Transwell (Costar, Cambridge, Mass.) cell culture chambers with a polycarbonate 8μm pore size membrane. PDGF was dissolved in DMEM and placed in the lower compartment in the presence, or absence, of compounds of Formula (I) wherein R1, R2, R3, R5, R6 or R8 are independently OH. Vascular smooth muscle cells (5×10^5) were then loaded in the upper compartment and incubated for 24 h at 37° C. in a humidified atmosphere containing 5% CO2. Non-migrated cells on the upper surface were scraped away gently and washed three times with PBS. Filters were fixed in methanol and stained with Giemsa. The number of vascular smooth muscle cells per 100×high power field (HPF) that had migrated to the lower surface of the filters was determined microscopically. Four HPFs were counted per filter. Experiments were performed either in duplicate or triplicate.
PDGF produced concentration-dependent increases in the migration of rat vascular smooth muscle cells with maximal effect obtained at a concentration of 1 nM. […] IC50 values for compounds of Formula (I) wherein R1, R2, R3, R5, R6 or R8 are independently OH were as follows.

Row | Compound | concentration of maximal effect on migration
1 | PDGF | 1 nM

same assay, conditions: Rattus norvegicus; PDGF-induced migration; 24 h at 37° C; by position of OH group

Row | IC50 | Compound
2 | 990 nM | COc1cc(O)ccc1OCCNCC(O)COc1cccc2[nH]c3ccccc3c12 (stereo not shown) [R1]
3 | 180 nM | COc1ccccc1OCCNCC(O)COc1ccc(O)c2[nH]c3ccccc3c12 (stereo not shown) [R5]
4 | 360 nM | COc1ccccc1OCCNCC(O)COc1cccc2[nH]c3ccc(O)cc3c12 (stereo not shown) [R8]
5 | 1720 nM | COc1ccccc1OCCNCC(O)COc1cccc2[nH]c3c(O)cccc3c12 (stereo not shown) [R6]
6 | 200 nM | COc1ccccc1OCCNCC(O)COc1c(O)ccc2[nH]c3ccccc3c12 (stereo not shown) [R3]
7 | 410 nM | COc1ccc(O)cc1OCCNCC(O)COc1cccc2[nH]c3ccccc3c12 (stereo not shown) [R2]
